# Biological target: T1, Human recombinant LSD1 protein (Homo sapiens, UniProt O60341)
# T1 construct: purchased Active Motif (Carlsbad, CA); host or cells: E. coli
# Assay: LSD1 enzymatic activity assay (AlphaLISA, Biotin-H3K4Me peptide substrate)
# Assay type: biochemical
# Conditions: 4 nM LSD1, 80 nM Biotin-H3K4Me peptide substrate, 1% DMSO, compounds tested as the TFA salt
# Procedure: Human recombinant LSD1 protein expressed in E. coli cells was purchased from Active Motif (Carlsbad, CA). Biotin-labeled Histone H3K4Me peptide (residues 1-21 with Lys 4 monomethylated) substrate was purchased from Anaspec (Fremont, CA). Enzymatic activity was assessed using the AlphaLISA technology from Perkin Elmer Life Sciences (Waltham, MA). 2.5 µL of compound solution and 5 µL of LSD1 solutions in the assay buffer (50mM Tris, pH 9.0, 50mM NaCl with 0.01% Tween20 and 1mM DTT added right before the assay) were added into a white low volume 384 well microtiter plate. This mixture solution was incubated for 15 minutes with gentle shaking at room temperature. Demethylation reaction was initiated by adding 2.5 µL of Biotin-H3K4Me peptide substrate solution in the assay buffer. Final concentrations of LSD1, Biotin-H3K4Me peptide substrate, and DMSO were 4 nM, 80 nM, and 1%, respectively. […] Plates were read on a BMG CLARIOStar multimode plate reader from BMG Labtech (Ortenberg, Germany) with an excitation wavelength of 680 nm and emission wavelength of 615 nm. IC50 values of inhibitors were obtained by fitting the fluorescence intensity vs inhibitor concentrations in a sigmoidal dose-response curve (variable slope) with a non-linear regression using Prism 7 (La Jolla, CA). […]
row,Compound,IC50
1,"CN(C)c1ccc(-c2ncc3c(ccn3CC3CCNCC3)c2-c2ccc(C#N)cc2)cc1 [compound 85, 4-(5-(4-(dimethylamino)phenyl)-1-(piperidin-4-ylmethyl)-1H-pyrrolo[2,3-c]pyridin-4-yl)benzonitrile]",23.1 nM

# Source: patent EP3628044B1, “PYRROLO[2,3-C]PYRIDINES AND RELATED ANALOGS AS LSD-1 INHIBITORS” (The Regents of The University of Michigan, priority 2017, dated 2018)
